In ChEMBL document CHEMBL1156596, “Overcoming undesirable CYP1A2 inhibition of pyridylnaphthalene-type aldosterone synthase inhibitors: influence of heteroaryl derivatization on potency and selectivity” (J Med Chem, 2008):

Assays:
CYP1A2 = target: T1, CYP1A2 (Homo sapiens, UniProt P05177); assay: Inhibition of human recombinant CYP1A2 expressed in insect microsomes at 2 uM; format: ADME, Microsome
T1 sequence (P05177 whole entry): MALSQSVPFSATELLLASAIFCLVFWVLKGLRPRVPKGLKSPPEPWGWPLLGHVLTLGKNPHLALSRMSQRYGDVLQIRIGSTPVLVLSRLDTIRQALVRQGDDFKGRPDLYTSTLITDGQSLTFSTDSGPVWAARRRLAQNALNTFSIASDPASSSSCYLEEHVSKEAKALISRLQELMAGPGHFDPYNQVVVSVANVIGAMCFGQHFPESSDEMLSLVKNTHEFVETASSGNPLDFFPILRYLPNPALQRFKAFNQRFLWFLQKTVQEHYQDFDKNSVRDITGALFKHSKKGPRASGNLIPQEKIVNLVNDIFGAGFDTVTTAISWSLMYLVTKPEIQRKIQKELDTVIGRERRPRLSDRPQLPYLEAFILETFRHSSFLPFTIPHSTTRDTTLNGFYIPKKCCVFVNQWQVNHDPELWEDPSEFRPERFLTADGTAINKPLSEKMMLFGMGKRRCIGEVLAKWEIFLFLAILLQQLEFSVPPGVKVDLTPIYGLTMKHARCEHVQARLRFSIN

CYP17 = target: T2, CYP17 (Homo sapiens, UniProt P05093); assay: Inhibition of human recombinant CYP17 expressed in Escherichia coli at 2 uM
T2 sequence (P05093 whole entry): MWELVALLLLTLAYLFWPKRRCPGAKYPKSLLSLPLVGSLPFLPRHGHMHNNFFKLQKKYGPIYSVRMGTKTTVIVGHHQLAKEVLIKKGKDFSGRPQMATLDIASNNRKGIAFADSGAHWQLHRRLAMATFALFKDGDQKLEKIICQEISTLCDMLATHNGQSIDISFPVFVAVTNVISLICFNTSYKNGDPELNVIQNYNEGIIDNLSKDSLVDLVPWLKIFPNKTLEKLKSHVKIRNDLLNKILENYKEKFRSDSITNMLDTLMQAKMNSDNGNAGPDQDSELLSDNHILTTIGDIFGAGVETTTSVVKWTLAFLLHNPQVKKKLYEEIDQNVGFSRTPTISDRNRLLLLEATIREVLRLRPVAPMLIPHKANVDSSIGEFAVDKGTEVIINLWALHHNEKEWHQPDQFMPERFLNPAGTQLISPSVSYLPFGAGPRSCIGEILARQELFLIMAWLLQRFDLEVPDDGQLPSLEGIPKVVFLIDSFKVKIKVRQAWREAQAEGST

Cytochrome P450 2D6 = Cytochrome P450 2D6 (Homo sapiens, UniProt P10635); assay: Inhibition of human recombinant CYP2D6 expressed in insect microsomes; format: ADME, Microsome
[1] = Terminal half life in Wistar rat at 5 mg/kg, po; format: ADME, organism-based; parameters: dose 5 mg/kg, route oral; settings: in vivo
[2] = Cmax in Wistar rat at 5 mg/kg, po; format: ADME, organism-based; parameters: dose 5 mg/kg, route oral; settings: in vivo
[3] = Plasma concentration in Wistar rat plasma at 5 mg/kg, po after 1 hr; format: ADME, organism-based; parameters: dose 5 mg/kg, route oral
[4] = Plasma concentration in Wistar rat plasma at 5 mg/kg, po after 4 hrs; format: ADME, organism-based; parameters: dose 5 mg/kg, route oral
Cytochrome P450 1A2 = target: T3, Cytochrome P450 1A2 (Homo sapiens, UniProt P05177)
T3 sequence (P05177 whole entry): T1 sequence (P05177 whole entry)

Sequence of Cytochrome P450 2D6 (P10635 whole entry): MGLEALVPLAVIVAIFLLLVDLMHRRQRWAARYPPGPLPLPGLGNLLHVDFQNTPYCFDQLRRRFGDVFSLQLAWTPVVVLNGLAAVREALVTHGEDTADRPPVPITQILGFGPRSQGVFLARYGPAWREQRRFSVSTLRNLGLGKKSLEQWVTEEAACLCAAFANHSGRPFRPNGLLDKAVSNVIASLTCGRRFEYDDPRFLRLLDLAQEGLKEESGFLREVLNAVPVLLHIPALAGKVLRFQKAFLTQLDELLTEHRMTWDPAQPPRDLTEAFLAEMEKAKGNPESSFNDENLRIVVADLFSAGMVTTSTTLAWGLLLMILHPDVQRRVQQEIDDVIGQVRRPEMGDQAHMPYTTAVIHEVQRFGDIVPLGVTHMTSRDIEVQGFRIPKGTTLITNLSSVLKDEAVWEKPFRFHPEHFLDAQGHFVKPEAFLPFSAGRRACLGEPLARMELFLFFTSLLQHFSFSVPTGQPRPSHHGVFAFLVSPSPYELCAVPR

inhibition at 2 µM (CYP1A2): 57%
inhibition at 2 µM (CYP17): 39%
IC50 (Cytochrome P450 2D6): 33.1 µM
half-life [1]: 192 min
Cmax [2]: 81 ng/mL
concentration at 1 h [3]: 34.9 ng/mL
concentration at 4 h [4]: 76.3 ng/mL
IC50 (Cytochrome P450 1A2): 1620 nM
Compound: COc1ccc2cc(-c3cncc4ccccc34)ccc2c1
